Results published in patent publication US20040097549A1, “Method and composition for administering a cyclooxygenase-2 inhibitor” (Pharmacia Corporation, priority 1999, published 2004).

What was measured:
[1] = Treatment of a dog with arthritic-related symptoms (Example 7); assay type: in vivo; conditions: 15-year old dog about 25 kg, commercially-available drug therapy for nine months; some worsening noted
Method: A 15-year old, black Labrador Retriever, mixed-heritage, neutered-male dog weighing about 25 kg has a history of arthritic-related symptoms that makes it difficult, or impossible, for the dog to stand, walk, or ascend or descend stairs. […] Over a subsequent period of six months, this dog is treated with a cyclooxygenase-2 inhibitor in the manner described as follows.
About 125 mg of a 95% pure, selective cyclooxygenase-2 inhibitor in white crystalline powder form is dispersed in a teaspoon of olive oil which is then spread over the surface of a single slice of commercially-available wheat bread. The bread is cut into quarters, all of which is then fed to the dog. The dog is observed to consume the entire slice of bread. Within ten (10) days of initial feeding of this dog, as described above, there is observed noticeable improvement in alleviation of arthritic-related symptoms. For example, the dog is observed to walk easily, descend stairs, […], and be less lethargic in day-to-day activities.

[2] = Cynomolgus monkeys, orally for six weeks; cited from earlier work

Row | Structure (SMILES) | improvement in the dog's arthritic-related symptoms [1] | Toxicity [2]
1 | CC(C(=O)O)c1ccc2c(c1)[nH]c1ccc(Cl)cc12 (centres unmarked) [Rimadyl carprofan] | without improvement | 
2 | CN1C(C(=O)Nc2ccccn2)=C(O)c2sc(Cl)cc2S1(=O)=O [lomoxicam] |  | monkeys: 1-2 mg/kg/day
